Measurements published in publication PMC11618697 (Nature Communications, 2024).
Residues, ends and D or L forms follow the SMILES beside them. *: point of attachment. Cbz = O=C(OCc1ccccc1)*

Key:
human CD25 = test: IHC staining of human CD25 in Hut78 xenograft tumors; assay type: in vivo, NSG mice
Hut78 cells [1] = test: Cell proliferation assays; assay type: cell-based, human
[2] = system: CD25, CD5 and CD7 on HH and Hut78 cells; test: Flow cytometry of CD25, CD5 and CD7; assay type: cell-based, human; details: 2 µM, 48 hours
[3] = system: Foxp3 in HH and Hut78 cells; test: Intracellular staining of Foxp3; assay type: cell-based, human; details: 1 µM, 48 h
HH cells [4] = test: Candidate PROTACs, cell viability by CCK8; assay type: cell-based, human; details: CCK8 (Fig 3c)
Hut78 cells [5] = test: IC50 assay, trypan blue exclusion count; assay type: cell-based, human
CDK2, CDK6 and CDK7 = test: Western blot of other CDKs in Hut78 cells; assay type: cell-based, human
293T cells = test: Viability of normal cells, trypan blue; assay type: cell-based, human
Hut78 cell proteins = test: Quantitative MS-based proteomics of Hut78 cells; assay type: cell-based, human
HH cells [6] = test: IC50 assay, trypan blue exclusion count; assay type: cell-based; details: Homo sapiens, 48 h
CDK9 [7] = target: T1, CDK9 (Homo sapiens, UniProt P50750); test: DC50; assay type: cell-based; details: CDK9 in Hut78 cells; 10 h
CDK9 [8] = target: T1, CDK9; test: IHC staining of human CDK9 in Hut78 xenograft tumors; assay type: in vivo, NSG mice; details: intraperitoneal injection
Hut78 xenografts = test: Hut78 cell line derived xenograft in NSG mice; assay type: in vivo
CDK9 [9] = target: T1, CDK9; test: Western blot of CDK9 in Hut78 cells; assay type: cell-based; details: for degradation of CDK9 (immunoblot): Hut78 cells
[10] = system: CDK9 (55 kDa) and CDK9 (42 kDa) mRNA; test: Q-PCR of CDK9 isoforms in Hut78 cells; assay type: cell-based, human
HH tumors = test: HH cell line derived xenograft in nude mice; assay type: in vivo
RARA mRNA = test: Q-PCR of RARA in Hut78 cells; assay type: cell-based, human
RARα = test: Western blot of RARα in Hut78 cells; assay type: cell-based, human
CDK9 [11] = target: T1, CDK9; assay type: cell-based; details: Hut78; 10 μM for 2 h prior to 6-h of GT-02897 (100 nM)
CDK9 [12] = target: T1, CDK9; test: Western blot of CDK9 in MOLT-4 cells; assay type: cell-based; details: MOLT-4 acute lymphoblastic leukemia cell line
CDK9 [13] = test: Western blot of CDK9 in HH cells; details: HH cells (Fig 3b)
Hut78 cells [14] = test: Cell viability / cell death at fixed dose, trypan blue; details: 250 nM, trypan blue (Supplementary Fig 4a)

T1 sequence (P50750 whole entry): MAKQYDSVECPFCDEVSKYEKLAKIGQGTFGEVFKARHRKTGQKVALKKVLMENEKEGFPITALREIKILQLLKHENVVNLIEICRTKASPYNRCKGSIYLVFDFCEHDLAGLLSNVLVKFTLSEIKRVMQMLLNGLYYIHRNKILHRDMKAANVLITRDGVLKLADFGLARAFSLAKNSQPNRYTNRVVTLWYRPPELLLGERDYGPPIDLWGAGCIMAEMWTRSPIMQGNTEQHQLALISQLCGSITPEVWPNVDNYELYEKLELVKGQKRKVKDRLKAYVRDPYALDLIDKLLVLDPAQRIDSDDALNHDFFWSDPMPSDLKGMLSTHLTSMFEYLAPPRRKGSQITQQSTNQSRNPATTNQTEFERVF

In the case of `CC1=C(/C=C/C(C)=C/C=C/C(C)=C/C(=O)O)C(C)(C)CCC1` [ATRA, all-trans retinoic acid], the “CD25 expression in isolated tumor tissues (IHC)” value (human CD25) is reported as “in vivo upregulation of CD25 expression”, the “CTCL cell growth and apoptosis” value (Hut78 cells [1]; CTCL cells (Hut78, Fig 7g)) is reported as “significant inhibition of cell growth without cell apoptosis” and the “cell growth of shCDK9-infected Hut78 cells” value (Hut78 cells [1]; Hut78 infected with shCDK9) is reported as “more pronounced inhibition of cell growth”. The “CD5 and CD7 level (flow cytometry)” value [2] was “unchanged”, the “CD25 expression (flow cytometry)” value [2] was “emerging expression of CD25” and the “Expression of Foxp3” value [3] was “not changed”.

With `CC(C)(C)c1cnc(CSc2cnc(NC(=O)C3CCN(C(=O)CCCSc4cccc5c4C(=O)N(C4CCC(=O)NC4=O)C5=O)CC3)s2)o1` (centres unmarked) [Compound 9, N-(5-(((5-(tert-butyl)oxazol-2-yl)methyl)thio)thiazol-2-yl)-1-(4-((2-(2,6-dioxopiperidin-3-yl)-1,3-dioxoisoindolin-4-yl)thio)butanoyl)piperidine-4-carboxamide] the “concentration displaying significant killing effects” value (HH cells [4]) was “below 500 nM” and the IC50 (Hut78 cells [5]; Homo sapiens, HuT78, 48 h) was 339 nM.

In the case of `CC(C)(C)c1cnc(CSc2cnc(NC(=O)C3CCN(C(=O)COCCOCCSc4cccc5c4C(=O)N(C4CCC(=O)NC4=O)C5=O)CC3)s2)o1` (centres unmarked) [Compound 19, N-(5-(((5-(tert-butyl)oxazol-2-yl)methyl)thio)thiazol-2-yl)-1-(2-(2-(2-((2-(2,6-dioxopiperidin-3-yl)-1,3-dioxoisoindolin-4-yl)thio)ethoxy)ethoxy)acetyl)piperidine-4-carboxamide], the “concentration displaying significant killing effects” value (HH cells [4]) is reported as “below 500 nM” and the IC50 (Hut78 cells [5]; Homo sapiens, HuT78, 48 h) is reported as 404 nM.

`CC(C)(C)c1cnc(CSc2cnc(NC(=O)C3CCN(CCCCCSc4cccc5c4CN(C4CCC(=O)NC4=O)C5=O)CC3)s2)o1` (centres unmarked) [Compound 23, N-(5-(((5-(tert-butyl)oxazol-2-yl)methyl)thio)thiazol-2-yl)-1-(5-((2-(2,6-dioxopiperidin-3-yl)-1-oxoisoindolin-4-yl)thio)pentyl)piperidine-4-carboxamide] was tested, and the “protein levels of CDK2, CDK6 and CDK7 (immunoblot)” value (from here on “protein levels of CDK2”) (CDK2, CDK6 and CDK7) was “without interfering protein levels of CDK2, CDK6 and CDK7”, the “killing effects on 293T cell” value (293T cells) was “minimal killing effects” and the “CDK9 abundance in quantitative proteomics” value (Hut78 cell proteins; 6 h after treatment, 5,689 proteins) was “one of the most significantly downregulated proteins”. For the same molecule, the RARα protein (Hut78 cell proteins; proteomics 12 hours, validated by western blot) was “significantly upregulated”, the IC50 (HH cells [6]) was 66.2 nM and the IC50 (Hut78 cells [5]; Homo sapiens, HuT78, 48 h) was 49.7 nM. The DC50 (CDK9 [7]) was 2.85 nM, the “CDK9 in isolated tumor tissues (IHC)” value (CDK9 [8]) was “in vivo degradation of CDK9 by GT-02897 was further confirmed” and the “CTCL tumors in vivo, co-administration with ATRA” value (Hut78 xenografts; Hut78 xenograft) was “more significant inhibition of CTCL tumors in vivo”. The “Hut78 cell growth in vivo” value (Hut78 xenografts; every other day, intraperitoneal or subcutaneous injection, 14 days) was “significantly suppress Hut78 cell growth in vivo”, the “growth inhibition effect in CDK9-depleted (shRNA) Hut78 xenografts” value (Hut78 xenografts; shCDK9-1 or shCDK9-2) was “significantly impaired the growth inhibition effect of GT-02897” and the “inhibition of CTCL cells, co-administration with ATRA” value (Hut78 cells [1]; Hut78, in vitro, cell number by trypan blue) was “more significant inhibition of CTCL cells”. The “degradation of CDK9 (immunoblot)” value (CDK9 [9]) was “strong degradation of CDK9” and the “mRNA expression of CDK9 (42 kDa) and CDK9 (55 kDa) isoforms” value [10] was “not affected”.

With `CC(C)(C)c1cnc(CSc2cnc(NC(=O)C3CCN(CCCCCCCCSc4cccc5c4CN(C4CCC(=O)NC4=O)C5=O)CC3)s2)o1` (centres unmarked) [Compound 24, N-(5-(((5-(tert-butyl)oxazol-2-yl)methyl)thio)thiazol-2-yl)-1-(8-((2-(2,6-dioxopiperidin-3-yl)-1-oxoisoindolin-4-yl)thio)octyl)piperidine-4-carboxamide] the “protein levels of CDK2” value (CDK2, CDK6 and CDK7) was “without interfering protein levels of CDK2, CDK6 and CDK7” and the “degradation of CDK9 (immunoblot)” value (CDK9 [9]) was “strong degradation of CDK9”.

With `CC(C)(C)c1cnc(CSc2cnc(NC(=O)C3CCN(CCCCSc4cccc5c4C(=O)N(C4CCC(=O)NC4=O)C5=O)CC3)s2)o1` (centres unmarked) [Compound 25, N-(5-(((5-(tert-butyl)oxazol-2-yl)methyl)thio)thiazol-2-yl)-1-(4-((2-(2,6-dioxopiperidin-3-yl)-1,3-dioxoisoindolin-4-yl)thio)butyl)piperidine-4-carboxamide] the “protein levels of CDK2” value (CDK2, CDK6 and CDK7) was “without interfering protein levels of CDK2, CDK6 and CDK7”, the IC50 (Hut78 cells [5]; Homo sapiens, HuT78, 48 h) was 50 to 165 nM and the “degradation of CDK9 (immunoblot)” value (CDK9 [9]) was “strong degradation of CDK9”.

`CC(C)(C)c1cnc(CSc2cnc(NC(=O)C3CCN(CCCCCCCSc4cccc5c4C(=O)N(C4CCC(=O)NC4=O)C5=O)CC3)s2)o1` (centres unmarked) [Compound 26, N-(5-(((5-(tert-butyl)oxazol-2-yl)methyl)thio)thiazol-2-yl)-1-(7-((2-(2,6-dioxopiperidin-3-yl)-1,3-dioxoisoindolin-4-yl)thio)heptyl)piperidine-4-carboxamide] was tested, and the “protein levels of CDK2” value (CDK2, CDK6 and CDK7) was “without interfering protein levels of CDK2, CDK6 and CDK7”, the IC50 (Hut78 cells [5]; Homo sapiens, HuT78, 48 h) was 50 to 165 nM and the “degradation of CDK9 (immunoblot)” value (CDK9 [9]) was “strong degradation of CDK9”.

`CC(C)(C)c1cnc(CSc2cnc(NC(=O)C3CCN(CCCCCCCCSc4cccc5c4C(=O)N(C4CCC(=O)NC4=O)C5=O)CC3)s2)o1` (centres unmarked) [Compound 27, N-(5-(((5-(tert-butyl)oxazol-2-yl)methyl)thio)thiazol-2-yl)-1-(8-((2-(2,6-dioxopiperidin-3-yl)-1,3-dioxoisoindolin-4-yl)thio)octyl)piperidine-4-carboxamide] showed an IC50 (Hut78 cells [5]; Homo sapiens, HuT78, 48 h) of 50 to 165 nM.

For `CN1CC[C@H](c2c(O)cc(O)c3c(=O)cc(-c4ccccc4Cl)oc23)[C@H](O)C1` [Flavopiridol], the “HH tumors in xenograft models” value (HH tumors) was “induced regression of HH tumors in vivo”, the “mRNA level of RARA” value (RARA mRNA) was “nor did it affect the mRNA level of RARA” and the “RARα protein (Western blot)” value (RARα) was “did not yield upregulation of RARα”.

In the case of `CC(C)C[C@@H](C=O)NC(=O)[C@H](CC(C)C)NC(=O)[C@H](CC(C)C)NC(=O)OCc1ccccc1` [MG132, reference compound] (Cbz-Leu-Leu-Leu-aldehyde), the “effect of MG132 on CDK9 loss induced by GT-02897” value (CDK9 [9]; Hut78, GT-02897 in presence or absence of MG132) is reported as “reverted the expression of CDK9 protein”.

With `O=C1NCCc2[nH]c(-c3ccncc3)cc21` [PHA-767491, reference compound] the IC50 (Hut78 cells [5]; Hut78 cells, 48-h, trypan blue) was 926 nM and the “effect of pre-treatment on degradation of CDK9 by GT-02897” value (CDK9 [11]) was “significantly dampened the degradation of CDK9”.

With `CC(C)(C)c1cnc(CSc2cnc(NC(=O)C3CCNCC3)s2)o1` [SNS-032] the “HH tumors in xenograft models” value (HH tumors) was “induced regression of HH tumors in vivo” and the “effect of pre-treatment on degradation of CDK9 by GT-02897” value (CDK9 [11]) was “significantly dampened the degradation of CDK9”.

For `CC(C)(C)c1cnc(CSc2cnc(NC(=O)C3CCN(CC(=O)NCCOCCOCCOCCNc4cccc5c4C(=O)N(C4CCC(=O)NC4=O)C5=O)CC3)s2)o1` (centres unmarked) [THAL-SNS-032], the “CDK9 protein (Western blot)” value (CDK9 [12]) was “induced significant loss of CDK9”, the “CDK9 protein (Western blot)” value (CDK9 [13]) was “did not disturb CDK9 protein” and the “killing in CTCL cells” value (Hut78 cells [14]) was “nor did it display effective killing”.
